Test results taken from patent publication US11823799B2, “Method for identifying personalized therapeutic strategies for patients affected with a cancer” (UNIVERSITE DE STRASBOURG, priority 2015, dated 2023).

Columns and labels:
[1] = system: glioblastoma patient HB21 tumor; assay: Glioblastoma patient HB21 biopsy cells grafted orthotopically in mouse brain, tumor volume; type: in vivo, Immunocompromised mice; conditions: for tumor growth inhibition compared to standard of care (Temozolomide): SB-3CT 25 mg/kg p.o, Cediranib 6 mg/kg p.o, 21 days after first treatment
Experimental: Immunocompromised mice were anesthetized with isoflurane 3% (BAXTER), under 0.5 L 02, and received a subcutaneous injection of ketofen 1% 1.5 mL/Kg (MERIAL). The scalp was incised and 100 000 cells of the dissociated glioblastoma biopsy were engrafted with a 2 μL Hamilton syringe (HARVARD […]; HAM-88400) mounted on a stereotaxic set up (HARVARD […]) at the following coordinates from the bregma x: −2 mm; y: +1 mm; z: −3.5 mm at a speed of 0.66 μl/min, 5 minutes after the syringe introduction. After injection, the syringe was kept in place for 5 minutes, and then raised for 1 mm per minute. The scalp was sutured with 7.5 mm Michel stainless steel wound clips (A75, PERFECT). Animals were allowed to recover under a heat lamp several minutes before they were returned to their cage.
After 52 days of tumor development, mice were randomized in 4 groups of treatment. First group was treated with Temozolomide 40 mg/kg (n=9) i.v during 5 consecutive days, second one was treated with SB-3CT 25 mg/kg (n=9) p.o during 10 days interrupted by 2 days of wash-out after 5 days, a third group was treated with Cediranib 6 mg/kg (n=10) p.o during 10 days interrupted by 2 days of wash-out after 5 days, a last one group was treated with Erlotinib 50 mg/kg (n=9) p.o 1 time per week during 3 weeks. The administration volume was 100 μL. On the day of termination (21 days after the first treatment), all mice are sacrificed by cervical dislocation, brains are removed (38 total samples), and included in cryo-embedding media OCT© and stored at −80° C.
Brains were cut in 20 μm sections with a cryostat (LEICA CM 3050S), mounted on blade (Superfrost Super Plus), and stored at −20° C. In order to visualize the tumor, brain sections were thawed in distilled water and Stained with 2% diluted Giemsa's staining (SUBRA; RAL diagnostic 320310-1000) in distilled water at 37° C. for 2 hours. […] Tumor volume was calculated by the addition of every partial volume: [Vtotal=Σpartial volumes=Σd1× (S1+S2)/2+d2×(S2+S3)/2+ . . . +dn× (Sn+Sn+1)]. […]

PC model (HID-28) [2] = assay: Prostate tumor PDX model HID-28, subcutaneous tumor growth in mice; type: in vivo, nude mice; conditions: Cediranib 6 mg/kg p.o; for effect on tumor growth / tumor development: Docetaxel 20 mg/kg i.p, Erlotinib 50 mg/kg p.o, vs vehicle
Source text: Small tumor fragments are subcutaneously implanted in the flank of athymic nude mice. When tumor size reached 1000 to 2000 mm^3, tumors are surgically excised and small tumor fragments (approximately 40 mm^3) are implanted in the subcutaneous tissue of the interscapular region of 82 nude mice. 36 mice with established growing tumors and tumor volume ranging 60 to 200 mm^3 are included in the study and randomized according to their individual tumor volume into 4 groups of 9 mice. Tumor signature is verified during the amplification and also after engraftment.
The first group is treated with Erlotinib 50 mg/kg (n=9) p.o 1 time per week during 3 weeks, the second is treated with Cediranib 6 mg/kg (n=9) p.o during 3 cycles of 5 days interrupted by 2 days of wash-out, the third group with a mix of the vehicle of Erlotinib and Cediranib (sodium carboxymethylcellulose 0.5%, captisol 15%, DMSO 1% and methylcellulose 0.5%), and the last group is treated with Docetaxel 20 mg/kg (n=9) i.p during 2 cycles of 1 injection every 3 weeks.
Tumor volume is evaluated biweekly by measuring tumor diameters, with a caliper. The formula TV (mm^3)=[length (mm)×width (mm)^2]/2 will be used, where the length and the width are the longest and the shortest diameters of the tumor, respectively.
On the day of termination (28 days after the first treatment), mice are sacrificed by cervical dislocation, tumor are collected from all mice (36 tumor samples totally) and serum from 5 mice per group is collected (20 serum samples totally).

CC model (CR-IC-028M) = assay: Colorectal tumor PDX model CR-IC-028M, subcutaneous tumor growth in mice; type: in vivo, SWISS Nude mice; conditions: Cediranib 6 mg/kg p.o
Source text: Small tumor fragments were subcutaneously implanted in the right flank of 9 CB17 SCID mice. When tumor size reached 500-700 mm^3, tumors were surgically excised and small tumor fragments were subcutaneously implanted in the right flank of 52 recipient SWISS Nude mice.
The treatment started when tumors reached a mean volume of 200-300 mm^3. 40 animals out were randomized according to their individual tumor volume into 4 groups each of 10 animals using Vivo Manager® software (Biosystemes, Couternon, France). A statistical test (analysis of variance) was performed to test for homogeneity between groups.
The administration volume for the two models was 10 mL/kg (200 μL/mouse of 20 g) adjusted to the most recent individual body weight of mice.
The tumor volume was calculated by [(a×b^2) 2], where a is the largest tumor diameter and b the perpendicular tumor diameter measured with a caliper every 3 days.
On the day of termination (31 days after the first treatment), mice were sacrificed (40 total samples) by gas anesthesia over-dosage (Isoflurane) followed by cervical dislocation or exsanguination and tumor were collected from all mice.

PC model (HID-28) [3] = conditions: cited from earlier work
recurrent glioblastoma = conditions: cited from earlier work

COc1cc2c(Oc3ccc4[nH]c(C)cc4c3F)ncnc2cc1OCCCN1CCCC1 [Cediranib]
tumor growth inhibition compared to standard of care (Temozolomide) [1]: identical to the one obtained with the standard of care | effect on tumor growth / tumor development (PC model (HID-28) [2]): very significant anti-tumor activity | tumor volume change (PC model (HID-28) [2]; end point of the protocol, p=0.002, T-test, evolution of tumor growth P<0.0001): −78% | effect on tumor growth / tumor development (CC model (CR-IC-028M); Cetuximab 12.5 mg/kg i.p, Trastuzumab 1 mg/kg i.p, vs vehicle): very significant anti-tumor activity | tumor volume change (CC model (CR-IC-028M); end point of the protocol, p=0.01, T-test, evolution of tumor growth P<0.0001): −50%

CC(=O)O[C@@]12CO[C@@H]1C[C@H](O)[C@@]1(C)C(=O)[C@H](O)C3=C(C)[C@@H](OC(=O)[C@H](O)[C@@H](NC(=O)OC(C)(C)C)c4ccccc4)C[C@@](O)([C@@H](OC(=O)c4ccccc4)[C@H]21)C3(C)C [Docetaxel]
response of the model in previous results (PC model (HID-28) [3]): responsive | effect on tumor growth / tumor development (PC model (HID-28) [2]): tumor growth was inhibited

C#Cc1cccc(Nc2ncnc3cc(OCCOC)c(OCCOC)cc23)c1 [Erlotinib]
efficacy when compared to all other drugs ([1]; Erlotinib 50 mg/kg p.o 1 time per week, 3 weeks, not significantly different): −60% | effect on tumor growth / tumor development (PC model (HID-28) [2]): not efficient in blocking tumor development

O=S(=O)(CC1CS1)c1ccc(Oc2ccccc2)cc1 (stereo not drawn) [SB-3CT]
tumor growth inhibition compared to standard of care (Temozolomide) [1]: identical to the one obtained with the standard of care

Bevacizumab
PFS and OS advantage in phase III trials (recurrent glioblastoma; AVAglio and RTOG phase III trials (Soffietti 2014)): significant advantage for Bevacizumab treated patients in term of PFS but not of OS | patients who seem to benefit from treatment (recurrent glioblastoma; overall): less than 50%
